Measurements from patent US20230250106A1, “COMPOUNDS AND COMPOSITIONS FOR TREATING CONDITIONS ASSOCIATED WITH STING ACTIVITY” (IFM Due, Inc., priority 2020, published 2023).

System: STING pathway
Assay: STING reporter assay: luciferase reporter activity in THP1-Dual KO-IFNAR2 cells activated with 2'3'cGAMP
Assay type: cell-based
Conditions: Homo sapiens, 2'3'cGAMP 15 μM, 24 h, read-out: hSTING EC50
Procedure: STING pathway activation by the compounds described herein was measured using THP1-Dual™ cells (KO-IFNAR2).
THP1-Dual™ KO-IFNAR2 Cells (obtained from invivogen) were maintained in RPMI, 10% FCS, 5 ml P/S, 2 mM L-glut, 10 mM Hepes, and 1 mM sodium pyruvate. Compounds were spotted in empty 384 well tissue culture plates (Greiner 781182) by Echo for a final concentration of 0.0017-100 μM. Cells were plated into the TC plates at 40 μL per well, 2×10E6 cells/mL. For activation with STING ligand, 2′3′cGAMP (MW 718.38, obtained from Invivogen), was prepared in Optimem media.
The following solutions were prepared for each 1×384 plate: • Solution A: 2 mL Optimem with one of the following stimuli: • 60 μL of 10 mM 2′3′cGAMP→150 μM stock • Solution B: 2 mL Optimem with 60 μL Lipofectamine 2000→Incubate 5 min at RT
2 mL of solution A and 2 ml Solution B was mixed and incubated for 20 min at room temperature (RT). 20 μL of transfection solution (A+B) was added on top of the plated cells, with a final 2′3′cGAMP concentration of 15 μM. The plates were then centrifuged immediately at 340 g for 1 minute, after which they were incubated at 37° C., 5% CO2,>98% humidity for 24 h. Luciferase reporter activity was then measured. EC50 values were calculated by using standard methods known in the art.
Luciferase reporter assay: 10 μL of supernatant from the assay was transferred to white 384-plate with flat bottom and squared wells. One pouch of QUANTI-Luc™ Plus was dissolved in 25 mL of water. 100 μL of QLC Stabilizer per 25 mL of QUANTI-Luc™ Plus solution was added. 50 μL of QUANTI-Luc™ Plus/QLC solution per well was then added. Luminescence was measured on a Platereader (e.g., Spectramax I3X (Molecular Devices GF3637001)).
Luciferase reporter activity was then measured. EC50 values were calculated by using standard methods known in the art.

Structure (SMILES) | EC50 [nM]
O=C(Nc1c[nH]c2cc(F)c(F)cc12)c1cnc(N2CC3(CC(OCC(F)(F)F)C3)C2)c(F)c1 [Compound 221, N-(5,6-difluoro-1H-indol-3-yl)-5-fluoro-6-(6-(2,2,2-trifluoroethoxy)-2-azaspiro[3.3]heptan-2-yl)nicotinamide] | 40 to 200
O=C(Nc1c[nH]c2cc(F)c(F)cc12)c1cnc(N2CC(F)(F)C2)c(Cl)c1 [Compound 137, 5-chloro-N-(5,6-difluoro-1H-indol-3-yl)-6-(3,3-difluoroazetidin-1-yl)nicotinamide] | 200 to 1000
Cc1cc(C(=O)Nc2c[nH]c3cc(F)c(F)cc23)cc(C2CCCCC2)n1 [Compound 186, 2-cyclohexyl-N-(5,6-difluoro-1H-indol-3-yl)-6-methylisonicotinamide] | 1000 to 5000
O=C(Nc1c[nH]c2cc(F)c(F)cc12)c1ccnc(NCCCC(F)(F)F)c1 [Compound 203, N-(5,6-difluoro-1H-indol-3-yl)-2-((4,4,4-trifluorobutyl)amino)isonicotinamide] | 200 to 1000
O=C(Nc1c[nH]c2cc(F)c(F)cc12)c1ccc(OCCCC(F)(F)F)c(Cl)c1 [Compound 151, 3-chloro-N-(5,6-difluoro-1H-indol-3-yl)-4-(4,4,4-trifluorobutoxy)benzamide] | 200 to 1000
O=C(Nc1c[nH]c2cc(F)c(F)cc12)c1ccc(CCOC(F)(F)F)cc1 [Compound 110, N-(5,6-difluoro-1H-indol-3-yl)-4-(2-(trifluoromethoxy)ethyl)benzamide] | 40 to 200
O=C(Nc1c[nH]c2cc(F)c(F)cc12)c1ccc(OCCC(F)(F)F)c(F)c1 [Compound 160, N-(5,6-difluoro-1H-indol-3-yl)-3-fluoro-4-(3,3,3-trifluoropropoxy)benzamide] | 40 to 200
O=C(Nc1c[nH]c2cc(F)c(F)cc12)c1ccn(Cc2ccc(C(F)(F)F)cc2)c(=O)n1 [Compound 193, N-(5,6-difluoro-1H-indol-3-yl)-2-oxo-1-[[4-(trifluoromethyl)phenyl]methyl]pyrimidine-4-carboxamide] | 1000 to 5000
O=C(Nc1c[nH]c2cc(F)c(F)cc12)c1ccc(CCC(F)(F)F)c(F)c1 [Compound 176, N-(5,6-difluoro-1H-indol-3-yl)-3-fluoro-4-(3,3,3-trifluoropropyl)benzamide] | 200 to 1000
O=C(Nc1c[nH]c2cc(F)c(F)cc12)c1cnc(N2CC3(C2)CC(F)(F)C3)c(Cl)c1 [Compound 101, 5-chloro-N-(5,6-difluoro-1H-indol-3-yl)-6-(6,6-difluoro-2-azaspiro[3.3]heptan-2-yl)nicotinamide] | 200 to 1000
COCCCNc1ncc(C(=O)Nc2c[nH]c3cc(F)c(F)cc23)cc1C [Compound 103, N-(5,6-difluoro-1H-indol-3-yl)-6-((3-methoxypropyl)amino)-5-methylnicotinamide] | 5000 to 100000
O=C(Nc1c[nH]c2cc(F)c(F)cc12)c1cccc(C2(O)CCC(F)(F)CC2)c1 [Compound 251, 3-(4,4-difluoro-1-hydroxycyclohexyl)-N-(5,6-difluoro-1H-indol-3-yl)benzamide] | 1000 to 5000
O=C(Nc1c[nH]c2cc(F)c(F)cc12)c1ccnc(CN2CC(F)(F)C2)c1 [Compound 257, N-(5,6-difluoro-1H-indol-3-yl)-2-((3,3-difluoroazetidin-1-yl)methyl)isonicotinamide] | 5000 to 100000
COCCO[C@@H]1CCN(c2ccc(C(=O)Nc3c[nH]c4cc(F)c(F)cc34)cc2F)C1 [Compound 185, (R)-N-(5,6-difluoro-1H-indol-3-yl)-3-fluoro-4-(3-(2-methoxyethoxy)pyrrolidin-1-yl)benzamide] | 200 to 1000
CCOc1cc(F)c(C(=O)Nc2c[nH]c3cc(F)c(F)cc23)c(F)c1 [Compound 199, N-(5,6-difluoro-1H-indol-3-yl)-4-ethoxy-2,6-difluorobenzamide] | 200 to 1000
O=C(Nc1c[nH]c2cc(F)c(F)cc12)c1ccc(OCCCC(F)(F)F)nc1 [Compound 138, N-(5,6-difluoro-1H-indol-3-yl)-6-(4,4,4-trifluorobutoxy)nicotinamide] | 200 to 1000
O=C(Nc1c[nH]c2cc(F)c(F)cc12)c1cnc(NCCC(F)(F)F)c(F)c1 [Compound 242, N-(5,6-difluoro-1H-indol-3-yl)-5-fluoro-6-((3,3,3-trifluoropropyl)amino)nicotinamide] | 200 to 1000
N#Cc1cc(C(=O)Nc2c[nH]c3ccc(Cl)cc23)cnc1N1CC(F)(F)C1 [Compound 271, N-(5-chloro-1H-indol-3-yl)-5-cyano-6-(3,3-difluoroazetidin-1-yl)nicotinamide] | 200 to 1000

Structure (SMILES) | EC50 [nM]
O=C(Nc1c[nH]c2cc(F)c(F)cc12)c1ccc(OC(F)(F)F)cc1 [Compound 135, N-(5,6-difluoro-1H-indol-3-yl)-4-(trifluoromethoxy)benzamide] | 200 to 1000
CCCCOc1ccc(C(=O)Nc2c[nH]c3cc(F)c(F)cc23)cc1 [Compound 132, 4-butoxy-N-(5,6-difluoro-1H-indol-3-yl)benzamide] | 200 to 1000
O=C(Nc1c[nH]c2cc(F)c(F)cc12)c1ccc(OC(F)F)cc1 [Compound 116, N-(5,6-difluoro-1H-indol-3-yl)-4-(difluoromethoxy)benzamide] | 200 to 1000
CC(C)(C)OC(=O)N1CCC(Oc2ccc(C(=O)Nc3c[nH]c4cc(F)c(F)cc34)cc2)CC1 [Compound 249, tert-butyl 4-{4-[(5,6-difluoro-1H-indol-3-yl)carbamoyl]phenoxy}piperidine-1-carboxylate] | 200 to 1000
O=C(Nc1c[nH]c2cc(F)c(F)cc12)c1ccc(C2(O)CCC(F)(F)CC2)c(F)c1 [Compound 258, 4-(4,4-difluoro-1-hydroxycyclohexyl)-N-(5,6-difluoro-1H-indol-3-yl)-3-fluorobenzamide] | 200 to 1000
O=C(Nc1c[nH]c2cc(F)c(F)cc12)c1cnc(N2CCC(OC(F)(F)F)CC2)cn1 [Compound 182, N-(5,6-difluoro-1H-indol-3-yl)-5-(4-(trifluoromethoxy)piperidin-1-yl)pyrazine-2-carboxamide] | 40 to 200
N#Cc1cc(C(=O)Nc2c[nH]c3cc(F)c(F)cc23)cnc1N1CCC(F)(F)CC1 [Compound 107, 5-cyano-N-(5,6-difluoro-1H-indol-3-yl)-6-(4,4-difluoropiperidin-1-yl)nicotinamide] | 200 to 1000
O=C(Nc1c[nH]c2cc(F)c(F)cc12)c1ccc(OCCC(F)(F)F)cc1 [Compound 141, N-(5,6-difluoro-1H-indol-3-yl)-4-(3,3,3-trifluoropropoxy)benzamide] | 200 to 1000
O=C(Nc1c[nH]c2cc(F)c(F)cc12)c1ccc(Oc2ccc(C(F)(F)F)cn2)cc1 [Compound 133, N-(5,6-difluoro-1H-indol-3-yl)-4-{[5-(trifluoromethyl)pyridin-2-yl]oxy}benzamide] | 200 to 1000
CC(C)n1cc(-c2cc(F)c3[nH]cc(NC(=O)c4ccc(OCCCC(F)(F)F)cc4)c3c2)cn1 [Compound 204, N-(7-fluoro-5-(1-isopropyl-1H-pyrazol-4-yl)-1H-indol-3-yl)-4-(4,4,4-trifluorobutoxy)benzamide] | 200 to 1000
COC1(C)CN(c2ncc(C(=O)Nc3c[nH]c4cc(F)c(F)cc34)cc2C)C1 [Compound 183, N-(5,6-difluoro-1H-indol-3-yl)-6-(3-methoxy-3-methylazetidin-1-yl)-5-methylnicotinamide] | 1000 to 5000
Cc1cc(C(=O)Nc2c[nH]c3cc(F)c(F)cc23)cc(C)c1C1CCC(F)(F)CC1 [Compound 278, N-(5,6-difluoro-1H-indol-3-yl)-4-(4,4-difluorocyclohexyl)-3,5-dimethylbenzamide] | 1000 to 5000
N#Cc1cc(C(=O)Nc2c[nH]c3cc(F)c(F)cc23)ccc1OCCCC(F)(F)F [Compound 150, 3-cyano-N-(5,6-difluoro-1H-indol-3-yl)-4-(4,4,4-trifluorobutoxy)benzamide] | 40 to 200
O=C(Nc1c[nH]c2cc(F)c(F)cc12)c1ccc(OCC2CC2)cc1 [Compound 130, 4-(cyclopropylmethoxy)-N-(5,6-difluoro-1H-indol-3-yl)benzamide] | 200 to 1000
CC(C)Oc1ccc(C(=O)Nc2c[nH]c3cc(F)c(F)cc23)cn1 [Compound 265, N-(5,6-difluoro-1H-indol-3-yl)-6-(propan-2-yloxy)pyridine-3-carboxamide] | 200 to 1000
O=C(Nc1c[nH]c2cc(F)c(F)cc12)c1ccc(OCc2ccccc2)cc1 [Compound 136, 4-(benzyloxy)-N-(5,6-difluoro-1H-indol-3-yl)benzamide] | 200 to 1000
Cc1ncc(C(=O)Nc2c[nH]c3cc(F)c(F)cc23)cc1N1CCC(F)(F)CC1 [Compound 256, N-(5,6-difluoro-1H-indol-3-yl)-5-(4,4-difluoropiperidin-1-yl)-6-methylnicotinamide] | 1000 to 5000
O=C(Nc1c[nH]c2cc(F)c(F)cc12)c1ccc(OC2CCCCC2)cc1 [Compound 196, 4-(cyclohexyloxy)-N-(5,6-difluoro-1H-indol-3-yl)benzamide] | 200 to 1000
